Two compounds from BindingDB's records for PubMed 35227979 (Northwest University, 2022) can be followed below.

The assay concerns the target Beta-2 adrenergic receptor (Homo sapiens, UniProt P07550). In words: Binding affinity to immobilized Halo tag-fused beta2 adrenoceptor (unknown origin) expressed in Escherichia coli BL21 (DE3) assessed as dissociation rate constant by receptor chromatography.

Sequence of Beta-2 adrenergic receptor (P07550 whole entry, the tested form may be a part): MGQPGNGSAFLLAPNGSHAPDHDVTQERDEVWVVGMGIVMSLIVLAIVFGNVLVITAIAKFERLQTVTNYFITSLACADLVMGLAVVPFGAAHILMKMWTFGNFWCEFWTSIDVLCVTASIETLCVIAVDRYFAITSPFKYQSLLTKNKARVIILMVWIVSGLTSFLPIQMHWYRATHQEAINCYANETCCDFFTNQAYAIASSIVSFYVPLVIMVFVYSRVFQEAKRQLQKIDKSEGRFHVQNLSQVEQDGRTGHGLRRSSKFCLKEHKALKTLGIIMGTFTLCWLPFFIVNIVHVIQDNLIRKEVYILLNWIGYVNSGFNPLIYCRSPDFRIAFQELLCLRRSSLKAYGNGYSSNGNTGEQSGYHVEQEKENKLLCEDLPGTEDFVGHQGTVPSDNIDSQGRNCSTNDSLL

On to `CNC(C)Cc1ccccc1OC` (configuration not stated) [Methoxyphenamine], for which the Kd was determined as 0.98 nM.
For `CC1(C)[C@@H](O)CC[C@]2(C)[C@H]3C(=O)C=C4[C@@H]5C[C@@](C)(C(=O)NCCc6ccc(O)cc6)CC[C@]5(C)CC[C@@]4(C)[C@]3(C)CC[C@@H]12`, the Kd was found to be 7.5 nM.

Usually Kd stands for the equilibrium constant for the complex coming apart.
